Test results: patent publication US6180844A, “Composition containing fluorescence-generating substrate” (Aisin Seiki Kabushiki Kaisha, priority 1998, dated 2001)

Tested on: human chromosome
Assay: In-situ hybridization of a human chromosome: fluorescence-generating substrate reacted with probe-bonded peroxidase and hydrogen peroxide, observed by fluorescence microscope
Set-up: key to Intensity of Fluorescence / Binding: +++: Very strong.; ++: Strong.; +: Weak.; ±: Very weak.; -: Not detected
Settings: for Binding: binding of the substrate to the chromosome, same reaction conditions; for Intensity of Fluorescence: human chromosome sample from peripheral blood lymphocytes, substrate in 0.01% hydrogen peroxide, room temperature 30 minutes, fluorescence microscope; for fluorescent signals observed: summary of Table 1
Source text: A human chromosome sample was hybridized with a digoxigenin-labeled, full-length human DNA probe, to which was bonded a peroxidase-labeled anti-digoxigenin antibody. This was reacted with any of fluorescence-generating substrates of the invention (Compounds 1 to 11) or with a comparative substrate of a commercially available, water-soluble fluorescent substrate, 3-(4-hydroxyphenyl)propionic acid (HPPA). […] The full-length human DNA probe hybridizes entirely with the human chromosome. Therefore, if the fluorescence-generating substrates tested herein are reacted in a reaction system comprising peroxidase and hydrogen peroxide, the entire chromosome in the system shall be seen to emit fluorescence in the fluorescence-microscopic observation.
The procedure is as follows:
Human chromosome samples were prepared from cultured human peripheral blood lymphocytes. Full-length human DNA was labeled with digoxigenin through nick translation, collected through ethanol precipitation, and dissolved in formamide to prepare a digoxigenin-labeled, full-length human DNA probe. Each human chromosome sample was immersed in a denaturing solution kept heated at 70° C., for 2 minutes, and then rapidly cooled by putting it into 70% ethanol cooled to 4° C., whereby the double-stranded DNA of the sample was kept dissociated in a single-stranded condition. The probe was kept in a water bath at 75° C. for 10 minutes, and then rapidly cooled in ice water with 5 minutes, whereby the double-stranded DNA of the probe was kept dissociated in a single-stranded condition. This probe was mixed with a hybridization solution, put on the human chromosome sample, and reacted with it overnight at 37° C. (in-situ hybridization).
After having been hybridized, the system was washed with a solution of 50% formamide/2×SSC at 37° C. for 15 minutes, then with 2×SSC at room temperature for 15 minutes, and then with 4×SSC at room temperature for 5 minutes, thereby removing the excess, non-hybridized probe therefrom. Next, a pcroxidase-labeled anti-digoxigenin antibody was diluted with a 1% blocking solution into a 1/100 dilution, and the resulting enzyme-labeled antibody dilution was put on the sample, and maintained at 37° C. for 1 hour. The excess enzyme antibody not bonded to the probe was removed by washing the system with a washing solution containing a surfactant. Any of the fluorescence-generating substrates (Compounds 1 to 11) of the invention and a commercially-available, water-soluble fluorescent substrate, HPPA was dissolved in a reactant solution containing 0.01% hydrogen peroxide […], and the resulting fluorescent substrate solution was put on the sample and reacted with it at room temperature for 30 minutes. After reacting in the reaction system comprising the probe-bonded peroxidase and hydrogen peroxide, the fluorescence-generating substrate formed a new compound which was fixed on the chromosome and emitted fluorescence, which was observed using a fluorescence microscopic.
The full-length human DNA probe hybridizes with the entire chromosome, with the result that the entire chromosome was stained with the fluorescence-generating substrate. Sample were processed with any of the fluorescent substrates (Compounds 1 to 11) as well as the commercially-available, water-soluble fluorescent substrate, […]. […] In addition, the binding of the substrate to the chromosome was checked.

| Binding | Intensity of Fluorescence | Structure (SMILES) | fluorescent signals observed | binding of the enzymatic reaction product to the chromosome (product after the enzymatic reaction) |
| --- | --- | --- | --- | --- |
| ++ | ++ | Cc1cc(O)ccc1NC(=O)c1ccccc1C [Compound 9] |  |  |
| ++ | ++ | Cc1cc(C)c(C(=O)Nc2ccc(O)cc2C)c(C)c1 [Compound 10, 4-hydroxy-2-methylphenyl-2,4,6-trimethylbenzamide] |  |  |
| +++ | +++ | O=C(O)CCCCCNC(=O)CCc1ccc(O)cc1 [Compound 11, 6-{3-(4-hydroxyphenyl)propionamido}hexanoic acid] | high-intensity fluorescent signals were observed |  |
| + | ± | O=C(O)CCc1ccc(O)cc1 [HPPA, 3-(4-hydroxyphenyl)propionic acid, reference compound] | few fluorescent signals were detected | soluble in water or could not bind to the chromosome |
